Test results: patent US8003658B2, “Quinazoline derivatives for inhibiting cancer cell growth and method for the preparation thereof” (Hanmi Holdings Co., Ltd., priority 2004, dated 2011)
Where two headings read alike, the source gives them in different places.

Tests used:
[1] = target: EGFR (EGFR type 1 kinase) (Homo sapiens, UniProt P00533); experiment: Inhibition of EGFR enzyme (fluorescence polarization kinase assay)
Protocol: 10 μl of EGFR (EGFR type 1 kinase) was added to each well of a 96-well microplate.

[2] = system: SW-620 (ATCC: CCL-227); experiment: Test of cancer cell growth inhibition (SRB), SW-620; details: Homo sapiens, SW-620, 72 h, read-out: IC50 SW-620
[3] = system: A431 (ATCC: CRL-1555); experiment: Test of cancer cell growth inhibition (SRB), A431; details: read-out: IC50 A431
[4] = system: SK-Br3 (ATCC: HTB-30); experiment: Test of cancer cell growth inhibition (SRB), SK-Br3; details: read-out: IC50 SK-Br-3
[5] = EGFR overexpressed A431, 72 hours, SRB
[6] = read-out: IC50 EGFR, Poly (Glu, Tyr) 4:1 and ATP, 1 hour room temperature, FP readout
[7] = Erb-B2 overexpressed SK-Br3, 72 hours, SRB

Compound | IC50 [1] [nM] | IC50 [2] [nM] | IC50 ([3]; Homo sapiens, A-431, 72 h) [nM] | IC50 ([4]; Homo sapiens, SK-BR-3, 72 h) [nM] | IC50 [3, 5] [nM] | IC50 [1, 6] [nM] | IC50 [4, 7] [nM]
C=CC(=O)NCCC(=O)Nc1ccc2ncnc(Nc3ccc(OCc4cccc(F)c4)c(Cl)c3)c2c1 [Example 22, N-(2-{4-[3-chloro-4-(3-fluoro-benzyloxy)-phenylamino]-quinazolin-6-ylcarbamoyl}-ethyl)-acrylamide] | 3 | > 10000 | 58 | 3 | – | – | –
C=CC(=O)N(C)CCC(=O)Nc1ccc2ncnc(Nc3ccc(OCc4cccc(F)c4)c(Cl)c3)c2c1 [Example 142-2, N-(2-{4-[3-chloro-4-(3-fluoro-benzyloxy)-phenylamino]-quinazolin-6-ylcarbamoyl}-ethyl)-N-methyl-acrylamide] | 2 | – | 19 | 4 | – | – | –
C=CC(=O)N(C)CCC(=O)Nc1ccc2ncnc(Nc3ccc(OCc4ccccn4)c(Cl)c3)c2c1 [Example 143, N-(2-{4-[3-chloro-4-(pyridin-2-ylmethoxy)-phenylamino]-quinazolin-6-ylcarbamoyl}-ethyl)-N-methyl-acrylamide] | 1 | – | 10 | 2 | – | – | –
C=CC(=O)N1CCC[C@H]1C(=O)Nc1ccc2ncnc(Nc3ccc(OCc4ccccn4)c(Cl)c3)c2c1 [Example 145, (2S)-1-acryloyl-pyrrolidine-2-carboxylic acid {4-[3-chloro-4-(pyridin-2-ylmethoxy)-phenylamino]-quinazolin-6-yl}-amide] | 4 | – | – | 25 | 32 | – | –
CC#CC(=O)N1CCC[C@H]1C(=O)Nc1cc2c(Nc3ccc(OCc4ccccn4)c(Cl)c3)ncnc2cc1OC [Example 146, (2S)-1-(1-oxo-butyn-2-yl)-pyrrolidine-2-carboxylic acid {4-[3-chloro-4-(pyridin-2-ylmethoxy)-phenylamino]-7-methoxy-quinazolin-6-yl}-amide] | – | – | – | – | 32 | 4 | 40
C=CC(=O)N1CCC[C@H]1C(=O)Nc1ccc2ncnc(Nc3ccc(OCc4cccc(C)n4)c(Cl)c3)c2c1 [Example 147, (2S)-1-acryloyl-pyrrolidine-2-carboxylic acid {4-[3-chloro-4-(6-methyl-pyridin-2-ylmethoxy)-phenylamino]-quinazolin-6-yl}-amide] | 2 | – | 21 | 19 | – | – | –
C=CC(=O)N1CCC[C@H]1C(=O)Nc1cc2c(Nc3ccc(OCc4ccccn4)c(Cl)c3)ncnc2cc1OC [Example 166, (2S)-1-acryloyl-pyrrolidine-2-carboxylic acid {4-[3-chloro-4-(pyridin-2-ylmethoxy)-phenylamino]-7-methoxy-quinazolin-6-yl}-amide] | 3 | – | – | – | 27 | – | 3
C=CC(=O)NCCC(=O)Nc1cc2c(Nc3ccc(OCc4ccccn4)c(Cl)c3)ncnc2cc1OC [Example 167, N-(2-{4-[3-chloro-4-(pyridin-2-ylmethoxy)-phenylamino]-7-methoxy-quinazolin-6-ylcarbamoyl}-ethyl)-acrylamide] | 2 | – | 17 | 4 | – | – | –
C=CC(=O)NCCC(=O)Nc1cc2c(Nc3ccc(OCc4ccccn4)c(C)c3)ncnc2cc1F [Example 178, N-(2-{7-fluoro-4-[3-methyl-4-(pyridin-2-ylmethoxy)-phenylamino]-quinazolin-6-ylcarbamoyl}-ethyl)-acrylamide] | 4 | – | 50 | 3 | – | – | –
C=CC(=O)N[C@H](C)C(=O)Nc1cc2c(Nc3ccc(OCc4ccccn4)c(Cl)c3)ncnc2cc1OC [Example 189, (1R)—N-(1-{4-[3-chloro-4-(pyridin-2-ylmethoxy)-phenylamino]-7-methoxy-quinazolin-6-ylcarbamoyl}-ethyl)-acrylamide] | 1 | – | 9 | 2 | – | – | –
C=CC(=O)N[C@@H](C)C(=O)Nc1cc2c(Nc3ccc(OCc4ccccn4)c(Cl)c3)ncnc2cc1OC [Example 190, (1S)—N-(1-{4-[3-chloro-4-(pyridin-2-ylmethoxy)-phenylamino]-7-methoxy-quinazolin-6-ylcarbamoyl}-ethyl)-acrylamide] | 2 | – | 13 | 6 | – | – | –
C=CC(=O)N[C@@H](CC)C(=O)Nc1cc2c(Nc3ccc(OCc4ccccn4)c(Cl)c3)ncnc2cc1OC [Example 205, (2S)-2-acryloylamino-N-{4-[3-chloro-4-(pyridin-2-ylmethoxy)-phenylamino]-7-methoxy-quinazolin-6-yl}-butyramide] | 2 | – | 17 | 19 | – | – | –
C=CC(=O)N[C@H](C)C(=O)Nc1cc2c(Nc3ccc(OCc4ccccn4)c(Cl)c3)ncnc2cc1OCCOC [Example 208, (1R)—N-(1-{4-[3-chloro-4-(pyridin-2-ylmethoxy)-phenylamino]-7-(2-methoxy-ethoxy)-quinazolin-6-ylcarbamoyl}-ethyl)-acrylamide] | 2 | – | 11 | 3 | – | – | –
C=CC(=O)NCC(=O)Nc1cc2c(Nc3ccc(OCc4cccc(F)c4)c(Cl)c3)ncnc2cc1OC [Example 211, N-({4-[3-chloro-4-(3-fluoro-benzyloxy)-phenylamino]-7-methoxy-quinazolin-6-ylcarbamoyl}-methyl)-acrylamide] | 2 | – | 16 | 6 | – | – | –
C=CC(=O)NCC(=O)Nc1cc2c(Nc3ccc(OCc4cccc(F)c4)c(Cl)c3)ncnc2cc1OCCOC [Example 217, N-({4-[3-chloro-4-(3-fluoro-benzyloxy)-phenylamino]-7-(2-methoxyethoxy)-quinazolin-6-ylcarbamoyl}-methyl)-acrylamide] | 2 | – | 14 | 3 | – | – | –
C=CC(=O)NCC(=O)Nc1cc2c(Nc3ccc(OCc4ccccn4)c(Cl)c3)ncnc2cc1OCCOC [Example 218, N-({4-[3-chloro-4-(pyridin-2-ylmethoxy)-phenylamino]-7-(2-methoxyethoxy)-quinazolin-6-ylcarbamoyl}-methyl)-acrylamide] | 2 | – | 16 | 4 | – | – | –
C=CC(=O)N[C@@H](C)C(=O)Nc1cc2c(Nc3ccc(OCc4ccccn4)c(Cl)c3)ncnc2cc1OCCCN1CCOCC1 [Example 219, (1S)—N-(1-{4-[3-chloro-4-(pyridin-2-ylmethoxy)-phenylamino]-7-(3-morpholin-4-yl-propoxy)-quinazolin-6-ylcarbamoyl}-ethyl)-acrylamide] | 2 | – | 17 | 7 | – | – | –
(1S)—N-(1-{4-[3-chloro-4-(pyridin-2-ylmethoxy)-phenylamino]-7-methoxy-quinazolin-6-ylcarbamoyl}-ethyl)-acrylamide [Example 216] | – | – | – | – | 13 | 2 | 8
